The values that follow come from US20050175692A1, “Pharmaceutical formulation comprising melatonin” (Neurim Pharmaceuticals (1991) ltd., priority 2002, published 2005).

Series [1] has as its system volunteers. Kind of series: Driving simulator: highway driving. In kind it is in vivo, human. The settings on record: 2 hours post-dosing. The source says:
(§1) A battery of performance tests and driving skill tests were given to the patients at pre-selected intervals after the administration of the tablet. These included psychomotor tasks for reaction test, vigilance and co-ordination: ARCI 49, Grooved Pegboard, Rivermead story, picture presentation, simple reaction time, digit vigilance task, choice reaction time, delayed picture recognition, visual tracking, driving simulator: highway driving and wake-EEG.

The test system of series [2] is volunteers. Description: Rivermead story (immediate and delayed recall). It is filed as in vivo, human. The note with it: compared to placebo and sustained release melatonin 2 mg.
Excerpt: as §1

The test system of series [3] is volunteers. Description: Cognitive Drug Research tests (attention, episodic secondary memory, motor co-ordination). It is filed as in vivo, human.
Excerpt: as §1

In series [4] the test system is volunteers. Kind of series: Grooved Pegboard. It is filed as in vivo, human. The note with it: 1 and 4 hours post-dosing, compared to baseline, placebo and sustained release melatonin 2 mg.
Excerpt: as §1

Series [5] relates to volunteers. Description: ARCI 49 (MBG, LSD, PCAG, BG scales). It is filed as in vivo, human.
Excerpt: as §1

Series [6] deals with volunteers. Description: Wake EEG. In kind it is in vivo, human.
Excerpt: as §1

For series [7] the following is noted: single evening tablet; melatonin sustained release 2 mg, zolpidem 10 mg. As for the experimental part:
Method. The pharmacokinetics of melatonin (2 mg sustained release formulation), zolpidem (10 mg) and their combination were assessed in 16 volunteers (12 males and 4 females).
Blood samples were withdrawn from the subjects at pre-selected intervals after the administration of the tablets.

Series [8] concerns volunteers. Description: Treatment-emergent adverse events in the psychomotor/driving study. More on the design: species or system human. The settings on record: in vivo.
Excerpt: as §1

A value given as a limit tells only on which side of the number the result lay.

Consider `Cc1ccc(-c2nc3ccc(C)cn3c2CC(=O)N(C)C)cc1` [Zolpidem, N,N,6-trimethyl-2-p-toyl-imidazo[1,2,-a]pyridine-3-acetamide L-(+)-tartrate (2:1)], for which the Number of collisions result with volunteers [1] is listed as “increased number of collisions”. Moreover, the “Memory efficiency, both recalls (immediate and delayed)” value in the series with volunteers [2] was “decreased”. The “Cognitive effects compared to placebo” value in the series with volunteers [3] (dosed alone, melatonin SR 2 mg or zolpidem 10 mg) is reported as “several acute impairments”. In addition, in the series with volunteers [3] (zolpidem 10 mg alone vs placebo), the “Time post-dosing by which acute impairments were resolved” value was not above 12.5 h. Moreover, the “Duration of task execution (ipsi and contra lateral)” value in the series on volunteers [4] is “significant increase”. Also, the “Sedative effect (increase of the PCAG scale) vs placebo” value in the series with volunteers [5] (first 4 hours post-dosing) was “strong significant sedative effect”. In the series on volunteers [5] (in vivo), the “Time after administration at which PCAG sedative effect reached the maximum” value is “about 4 hour”. Further, the “Alpha activity in driving conditions vs sustained release melatonin alone” value in the series on volunteers [6] (driving conditions, not different vs placebo) was “significantly increased”. Besides, the “Theta rhythm on frontal leads vs placebo” value in the series on volunteers [6] (in vivo) was “increased”. Moreover, the “Alpha activity in resting conditions vs placebo” value in the series with volunteers [6] (resting conditions) is recorded as “decreases in alpha”. In series [7], the “Time to maximum, zolpidem in serum, Mean (SD)” value is given as 1.8 (1.2) h and the “maximum concentration, zolpidem in serum, Mean (SD)” value was 0.22 (0.11) mcg/ml. Further, in the series on volunteers [8], the “Incidence of somnolence compared with melatonin alone and placebo” value is reported as “clearly increased”.
